According to patent publication US5994336A, “Method of inhibiting proliferation of cells by administering an aminosterol compound” (priority 1995, dated 1999):
In brackets after ≈: the same amount, converted by molar mass. Entries after “also recorded” stand apart in the source; their conditions may differ.

Assays:
[1] = system: Xenopus tadpole, stage 59-60; test: Tadpole assay; assay type: in vivo, Xenopus laevis; conditions: 10 μg/ml; for pharmacological response in tadpole (words): stage 59-60
Source text: For example, substances that destroy all of the animal's epithelium, both adult and embryonic, could be regarded as toxic.
The volume of liquid is sufficient for the animal to swim freely and drink from the solution. […] If the volume of liquid is not sufficient to permit oral intake, the effects that are observed would result from absorption through the surface epithelium.
In another embodiment of this assay, a solution of a compound in water can be injected directly into the abdomen of the animal using standard techniques.
After an amount of time, typically about 60 minutes, the occlusion of blood flow through capillaries in the tadpole's tail are observed under an inverted microscope at a magnification of roughly 100×.
In the assay, each of the steroids was dissolved in 100 ml of distilled water at a concentration of 10 μg/ml. Stage 59-60 Xenopus tadpoles were introduced and evaluated by light microscopy and gross observation 1 hour later.

[2] = MTT assay (Table II); assay type: cell-based; conditions: read-out: Minimum Effective Concentration, MTT assay
Source text: (§1) As set forth in Table II, which follows Table I, the activities of natural and synthetic aminosterols in the different assays vary. In light of the foregoing, it is now possible to screen for steroids with or without squalamine-like pharmacological activity.

[3] = system: P. aerug; test: Antibiotic activity, MIC; assay type: cell-based
Source text: (§2) Thus, it is possible to achieve an antimicrobial steroid with or without squalamine-like pharmacological activity.

[4] = system: C. albicans; test: Antibiotic activity, MIC; assay type: cell-based; conditions: Candida albicans
Source text: as §2

[5] = system: S. aureus; test: Antibiotic activity, MIC; assay type: cell-based; conditions: Staphylococcus aureus
Source text: as §2

[6] = system: E. coli; test: Antibiotic activity, MIC; assay type: cell-based; conditions: Escherichia coli
Source text: as §2

[7] = system: NHE1β; conditions: nucleated erythrocyte isoform; cited from earlier work
[8] = target: T1, rabbit NHE3 (Oryctolagus cuniculus, UniProt P26432); conditions: existing agents such as amiloride; cited from earlier work
T1 construct: BCECF internal pH recovery
T1 sequence (P26432 30-832): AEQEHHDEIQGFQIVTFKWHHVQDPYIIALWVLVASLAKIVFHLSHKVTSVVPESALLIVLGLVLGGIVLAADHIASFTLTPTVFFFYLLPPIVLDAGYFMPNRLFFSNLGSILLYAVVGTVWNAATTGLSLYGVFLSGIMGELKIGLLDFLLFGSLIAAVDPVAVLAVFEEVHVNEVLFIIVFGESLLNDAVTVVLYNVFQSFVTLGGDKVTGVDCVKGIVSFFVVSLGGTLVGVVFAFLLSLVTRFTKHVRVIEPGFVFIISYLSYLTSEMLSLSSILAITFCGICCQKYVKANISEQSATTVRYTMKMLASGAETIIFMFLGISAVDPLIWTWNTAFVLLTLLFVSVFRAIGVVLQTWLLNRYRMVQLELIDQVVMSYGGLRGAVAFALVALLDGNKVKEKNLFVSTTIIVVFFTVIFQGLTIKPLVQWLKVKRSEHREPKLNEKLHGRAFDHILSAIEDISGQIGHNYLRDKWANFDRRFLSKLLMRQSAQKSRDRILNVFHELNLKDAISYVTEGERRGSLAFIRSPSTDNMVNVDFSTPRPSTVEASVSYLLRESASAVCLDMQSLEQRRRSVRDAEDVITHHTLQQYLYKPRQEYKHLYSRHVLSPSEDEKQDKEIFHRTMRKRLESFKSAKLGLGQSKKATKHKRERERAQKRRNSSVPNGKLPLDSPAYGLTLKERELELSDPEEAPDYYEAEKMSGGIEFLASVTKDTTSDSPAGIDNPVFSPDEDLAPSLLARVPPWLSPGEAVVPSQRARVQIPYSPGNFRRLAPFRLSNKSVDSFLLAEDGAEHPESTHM

[9] = system: vitelline capillaries; test: Chick embryo vitelline capillary regression assay; assay type: in vivo
Method: Using the chick embryo vitelline capillaries assay, compounds were tested for their ability to induce capillary regression. Each compound was applied in 0.1 ml of 15% Ficol 400 and PBS onto the embryo, and vascular regression was assessed after 60 minutes.
The 3-day chick embryo consists of an embryonic disc from which numerous vessels emerge and return, forming a "FIG. 8"-shaped structure--the embryo in the center with vascular loops extending outward over both poles. […] Following a lag period of around 15 minutes, the constriction of continuity between capillary and secondary vessels, generally on the "venous" side, was observed. Continued pulsatile blood flow progressed, resulting in a "swelling" of the blind tube, followed by a pinching off of the remaining connection and formation of an enclosed vascular sac resembling a "blood island." This process progressed until only the largest vessels remained intact.

[10] = Effect on fasting blood glucose in mice; assay type: in vivo, mouse; conditions: i.v.
Method: To study the effect of steroid administrator or the NHE responsible for secretion of insulin, several of the aminosterols from shark liver were administered to fasting mice. Male CD-1 mice were assigned to one of four treatment groups. Whole blood glucose was tested using glucometer (Lifescan Glucometer II and One Touch test strips). Statistical analysis was via one-way analysis of variance (ANOVA) followed by subsequent Bonferonni's t-test.

[11] = system: Human ovarian carcinoma SKOV3; test: Growth inhibition in vitro (Table 7); assay type: cell-based
Method: As set forth in Table 7 below, all malignant tumors evaluated in tissue culture, endothelial cells and vascular smooth muscle cells were sensitive to inhibition. Thus, compound 1436 has application in the control of growth factor dependent proliferation of many types of tissue.
Using the assay described above, the anticancer effects of compound 1437 against several cancer lines was assessed.

[12] = system: Lic; test: MTT Lic (Table II); assay type: cell-based; conditions: read-out: Minimum Effective Concentration, MTT Lic
Source text: as §1

[13] = system: human microvascular cells; test: Inhibition of endothelial cell cord formation in vitro; assay type: cell-based; conditions: Homo sapiens, Endothelial cell; Table II; read-out: Minimum Effective Concentration, Cord Formation
Source text: Endothelial cells have the capacity in vitro to form tubular aggregates resembling capillaries in various early stages of formation. This conversion occurs under relatively specific conditions, in which essential growth factors along with an effective substratum are provided. It has been shown that both the interaction of growth factors with the endothelial cell and its attachment to a substratum activate the NHE. The activation of this exchanger is believed to be required for subsequent morphologic transformation of the endothelial cell into a multicellular tubular structure.
To assess the effect of compounds on the cord-like structures formed by human microvascular cells when plated in the presence of VEGF (Vascular Endothelial Growth Factor) and basic fibroblast growth factor on a collagen matrix, a standard cord formation assay was used.

C[C@H](CCC(=O)O)[C@H]1CC[C@H]2[C@@H]3[C@H](O)C[C@@H]4C[C@H](NCCCNCCCCNCCCN)CC[C@]4(C)[C@H]3CC[C@]12C [Compound 412]
pharmacological response in tadpole (words) [1]: pharmacologic activity similar to that seen for FX 3

COC(=O)CCC(C)[C@H]1CCC2C3C(CC[C@@]21C)[C@@]1(C)CC[C@@H](NCCN)C[C@H]1C[C@H]3O (stereo partly shown)
minimal effective concentration [2]: 2.5 µg/mL

CC(O)[C@H]1CC[C@H]2[C@@H]3CC[C@H]4C[C@H](NCCCNCCCCN)CC[C@]4(C)[C@H]3CC[C@]12C (stereo partly shown)
MIC [3]: 128 µg/mL (≈ 286 µM)
MIC [4]: 128 µg/mL (≈ 286 µM)
MIC [5]: 16 µg/mL (≈ 35.7 µM)
MIC [6]: 64 µg/mL (≈ 143 µM)

N=C(N)NC(=O)c1nc(Cl)c(N)nc1N [Amiloride]
inhibition of NHE1β [7]: inhibited by high concentrations
effect on Vmax of NHE3 (existing agents) [8]: affected only Vmax

CC(C)CCC[C@@H](C)[C@H]1CC[C@H]2[C@@H]3[C@H](O)C[C@H]4C[C@@H](NCCCNCCCCN)CC[C@]4(C)[C@H]3CC[C@]12C [Compound 371]
pharmacological response in tadpole (words) [1]: effects like those produced by compound 1436

CC(C)CCC[C@@H](C)[C@H]1CC[C@H]2[C@@H]3[C@H](O)C[C@H]4C[C@H](NCCCNCCCCN)CC[C@]4(C)[C@H]3CC[C@]12C [drawing 94]
minimal effective concentration [2]: 4 µg/mL

COC(=O)CC[C@@H](C)[C@H]1CC[C@H]2[C@@H]3[C@H](O)C[C@@H]4C[C@@H](NCCN)CC[C@]4(C)[C@H]3CC[C@]12C [Compound 409]
pharmacological response in tadpole (words) [1]: functionally similar to compound 1437

COC(=O)CC[C@@H](C)[C@H]1CC[C@H]2[C@@H]3CC[C@H]4C[C@@H](NCCCNCCCCNCCCN)CC[C@]4(C)[C@H]3CC[C@]12C [Compound 459]
pharmacological response in tadpole (words) [1]: pharmacologic activity similar to that seen for FX 3

C[C@H](CCC(=O)O)[C@H]1CC[C@H]2[C@@H]3C[C@@H](O)[C@H]4C[C@@H](NCCN)CC[C@]4(C)[C@H]3CC[C@]12C [Compound 433]
pharmacological response in tadpole (words) [1]: functionally similar to compound 1437

COC(=O)CC[C@@H](C)[C@H]1CC[C@H]2[C@@H]3[C@H](O)C[C@@H]4C[C@H](NCCN)CC[C@]4(C)[C@H]3CC[C@]12C [Compound 410]
pharmacological response in tadpole (words) [1]: functionally similar to compound 1437

COC(=O)CC[C@@H](C)[C@H]1CC[C@H]2[C@@H]3C[C@@H](O)[C@H]4C[C@@H](NCCCNCCCCNCCCN)CC[C@]4(C)[C@H]3CC[C@]12C [Compound 466]
pharmacological response in tadpole (words) [1]: pharmacologic activity similar to that seen for FX 3

COC(=O)CC[C@@H](C)[C@H]1CC[C@H]2[C@@H]3C[C@@H](O)[C@H]4C[C@@H](NCCN)CC[C@]4(C)[C@H]3CC[C@]12C [Compound 432]
pharmacological response in tadpole (words) [1]: functionally similar to compound 1437

COC(=O)CC[C@@H](C)[C@H]1CC[C@H]2[C@@H]3C[C@@H](O)[C@H]4C[C@H](NCCCNCCCCNCCCN)CC[C@]4(C)[C@H]3CC[C@]12C [Compound 465]
pharmacological response in tadpole (words) [1]: pharmacologic activity similar to that seen for FX 3

C[C@H](CCC(=O)O)[C@H]1CC[C@H]2[C@@H]3[C@H](O)C[C@@H]4C[C@@H](NCCCNCCCCNCCCN)CC[C@]4(C)[C@H]3CC[C@]12C [Compound 413]
pharmacological response in tadpole (words) [1]: effects like those produced by compound 1436

CC(COS(=O)(=O)O)C(=O)CC[C@@H](C)[C@H]1CC[C@H]2[C@@H]3[C@H](O)C[C@H]4C[C@@H](NCCCNCCCCN)CC[C@]4(C)[C@H]3CC[C@]12C (single isomer, unassigned) [Compound 1360]
effect on circulating embryonic blood ([9]; within 20 minutes): the blood circulating through the embryonic vessels exhibited a brighter red color
pharmacological response in tadpole (words) [1]: Swelling and lysis of certain erythrocytes occurred, resulting in accumulation of nuclei within certain small vessels of the tail. Subsequent tissue breakdown occurred in areas of tail surrounding these nuclear plugs
pharmacological response in tadpole (words) ([1]; listed as compound 1360): extensive vasocclusion occurred within 60 minutes throughout the tail

C[C@H](CCC(=O)O)[C@H]1CC[C@H]2[C@@H]3[C@H](O)C[C@@H]4C[C@H](NCCN)CC[C@]4(C)[C@H]3CC[C@]12C [Compound 414]
pharmacological response in tadpole (words) [1]: pharmacologic activity similar to Fraction 1

COC(=O)CC[C@@H](C)[C@H]1CC[C@H]2[C@@H]3C[C@@H](O)[C@H]4C[C@H](NCCN)CC[C@]4(C)[C@H]3CC[C@]12C [Compound 431]
pharmacological response in tadpole (words) [1]: functionally similar to compound 1437

CC(C)C(CO)(CC[C@@H](C)[C@H]1CC[C@H]2[C@@H]3[C@H](O)C[C@H]4C[C@@H](NCCCNCCCCN)CC[C@]4(C)[C@H]3CC[C@]12C)OS(=O)(=O)O (single isomer, unassigned) [Compound 1437]
blood glucose effect [10]: caused hyperglycemia in mice
tissues or functions not affected in tadpole [1]: Animal was otherwise active, with little tissue breakdown noted
pharmacological response in tadpole (words) [1]: Epithelium covering the embryonic portions of the animal, such as the tail and antennae, began to slough off in sheets; also recorded: dramatic effect on the embryonic epithelium covering the tadpole tale
anticancer activity [11]: exhibit anticancer activity

CC(O)[C@H]1CC[C@H]2[C@@H]3CC[C@H]4C[C@@H](NCCCNCCCCN)CC[C@]4(C)[C@H]3CC[C@]12C (stereo partly shown)
MIC [3]: 256 µg/mL (≈ 572 µM)
MIC [4]: 64 µg/mL (≈ 143 µM)
MIC [5]: 4 µg/mL (≈ 8.93 µM)
MIC [6]: 32 to 64 µg/mL (≈ 71.5 to 143 µM)

COC(=O)CC[C@@H](C)[C@H]1CC[C@H]2[C@@H]3CC[C@H]4C[C@H](NCCCNCCCCNCCCN)CC[C@]4(C)[C@H]3CC[C@]12C [Compound 458]
pharmacological response in tadpole (words) [1]: pharmacologic activity similar to that seen for FX 3

CC(CC[C@@H](OS(=O)(=O)O)C(C)C)[C@H]1CCC2C3C(CC[C@@]21C)[C@@]1(C)CC[C@H](NCCCNCCCCN)C[C@@H]1C[C@H]3O (stereo partly shown)
minimal effective concentration [12]: 13.2 µg/mL
minimal effective concentration [13]: 0.01 to 0.1 µg/mL

CC(C)CCC[C@@H](C)[C@H]1CC[C@H]2[C@@H]3[C@H](O)C[C@H]4C[C@H](NCCCNCCCCN)CC[C@]4(C)[C@H]3CC[C@]12C [Compound 370]
pharmacological response in tadpole (words) [1]: pharmacologic activity similar to that seen for FX 3

C[C@H](CCC(=O)O)[C@H]1CC[C@H]2[C@@H]3[C@H](O)C[C@@H]4C[C@@H](NCCN)CC[C@]4(C)[C@H]3CC[C@]12C [Compound 415]
activity on vitelline capillaries [9]: especially active

CC(CC[C@@H](OS(=O)(=O)O)C(C)C)[C@H]1CCC2C3C(CC[C@@]21C)[C@@]1(C)CC[C@H](NCCCNCCCCNCCCN)C[C@@H]1C[C@H]3O (stereo partly shown)
minimal effective concentration [12]: 16.7 µg/mL

CC(C)CCC[C@@H](C)[C@H]1CC[C@H]2[C@@H]3CC[C@H]4C[C@@H](NCCCNCCCCNCCCN)CC[C@]4(C)[C@H]3CC[C@]12C [drawing 86]
minimal effective concentration [2]: 3 µg/mL

CC(C)CCC[C@@H](C)[C@H]1CC[C@H]2[C@@H]3[C@H](O)C[C@H]4C[C@H](N)CC[C@]4(C)[C@H]3CC[C@]12C [Compound 1363]
pharmacological response in tadpole (words) [1]: pharmacologic activity similar to Fraction 1

COC(=O)CC[C@@H](C)[C@H]1CC[C@H]2[C@@H]3CC[C@@H]4C[C@H](NCCN)CC[C@]4(C)[C@H]3C[C@H](O)[C@]12C [Compound 416]
pharmacological response in tadpole (words) [1]: functionally similar to compound 1437
